pIC50: −log10 of the molar value. The source made the active and inactive calls. The calls are words filed in the database; no cut-off is given here.
What was measured:
[1] = biological target: T1, Bifunctional epoxide hydrolase 2 (Mus musculus, UniProt P34914); test: biochemical
T1 sequence (P34914 whole entry): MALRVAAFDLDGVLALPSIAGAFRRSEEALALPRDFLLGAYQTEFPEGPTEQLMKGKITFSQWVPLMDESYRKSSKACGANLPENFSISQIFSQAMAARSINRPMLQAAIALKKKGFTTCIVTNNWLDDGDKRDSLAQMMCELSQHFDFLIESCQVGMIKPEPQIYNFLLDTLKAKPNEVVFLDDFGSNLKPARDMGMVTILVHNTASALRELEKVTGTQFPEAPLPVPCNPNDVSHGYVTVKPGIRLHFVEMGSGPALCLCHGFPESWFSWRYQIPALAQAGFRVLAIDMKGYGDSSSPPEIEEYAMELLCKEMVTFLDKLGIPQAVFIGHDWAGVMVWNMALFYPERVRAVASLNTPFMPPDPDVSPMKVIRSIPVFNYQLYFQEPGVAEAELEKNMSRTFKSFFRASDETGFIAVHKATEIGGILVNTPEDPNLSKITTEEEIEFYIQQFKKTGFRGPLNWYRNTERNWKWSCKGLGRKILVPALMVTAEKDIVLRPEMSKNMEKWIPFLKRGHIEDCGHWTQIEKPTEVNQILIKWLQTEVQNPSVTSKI
Description: Inhibition of C57BL/6J mouse brain sEH using 14,15-EET as substrate preincubated for 15 mins followed by substrate addition by HPLC-MS analysis

Mus musculus [2] = test: Anti-inflammatory activity in BALB/c mouse model of carrageenan-induced paw edema assessed as inhibition of paw swelling at 20 mg/kg, po measured for 0.5 hrs relative to control; format: functional
Mus musculus [3] = test: Anti-inflammatory activity in BALB/c mouse model of carrageenan-induced paw edema assessed as inhibition of paw swelling at 20 mg/kg, po measured for 0.5 to 6 hrs relative to control; format: functional; settings: time 0.5-6 hrs
[4] = Cmax in brain of C57BL/6J mouse at 20 mg/kg, po measured for 24 hrs; format: ADME, organism-based
Mus musculus [5] = test: Anti-inflammatory activity in BALB/c mouse model of carrageenan-induced paw edema assessed as inhibition of paw swelling at 20 mg/kg, po measured for 6 hrs relative to control; format: functional
[6] = Cmax in plasma of C57BL/6J mouse at 20 mg/kg, po measured for 24 hrs; format: ADME, organism-based
[7] = AUC (0 to 24 hrs) in liver of C57BL/6J mouse at 20 mg/kg, po measured for 24 hrs; format: ADME, organism-based
Mus musculus [8] = test: Analgesic effect in BALB/c mouse model of acetic acid-induced writhing assessed as reduction in number of writhing episodes at 20 mg/kg, po pretreated for 1 hr followed by acetic acid treatment and measured after 5 to 35 mins relative to control; format: functional; design: scale not given: the % may be the effect or the level left; settings: time 65-95 min
[9] = Cmax in liver of C57BL/6J mouse at 20 mg/kg, po measured for 24 hrs; format: ADME, organism-based
[10] = AUC (0 to 24 hrs) in kidney of C57BL/6J mouse at 20 mg/kg, po measured for 24 hrs; format: ADME, organism-based
[11] = Cmax in kidney of C57BL/6J mouse at 20 mg/kg, po measured for 24 hrs; format: ADME, organism-based
[12] = AUC (0 to 24 hrs) in brain of C57BL/6J mouse at 20 mg/kg, po measured for 24 hrs; format: ADME, organism-based
[13] = Ratio of Cmax in kidney to plasma in C57BL/6J mouse at 20 mg/kg, po measured for 24 hrs; format: ADME, organism-based; settings: kidney and plasma
[14] = Ratio of AUC (0 to 24 hrs) in liver to plasma in C57BL/6J mouse at 20 mg/kg, po measured for 24 hrs; format: ADME, organism-based; settings: liver and plasma, read-out: Ratio AUC
Mus musculus [15] = test: Anti-inflammatory activity in BALB/c mouse model of carrageenan-induced paw edema assessed as inhibition of paw swelling at 20 mg/kg, po measured for 2 hrs relative to control; format: functional
[16] = Ratio of Cmax in liver to plasma in C57BL/6J mouse at 20 mg/kg, po measured for 24 hrs; format: ADME, organism-based; settings: liver and plasma
[17] = Ratio of AUC (0 to 24 hrs) in kidney to plasma in C57BL/6J mouse at 20 mg/kg, po measured for 24 hrs; format: ADME, organism-based; settings: kidney and plasma, read-out: Ratio AUC
[18] = Ratio of Cmax in brain to plasma in C57BL/6J mouse at 20 mg/kg, po measured for 24 hrs; format: ADME, organism-based; settings: brain and plasma
[19] = AUC (0 to 24 hrs) in plasma of C57BL/6J mouse at 20 mg/kg, po measured for 24 hrs; format: ADME, organism-based
[20] = Ratio of AUC (0 to 24 hrs) in brain to plasma in C57BL/6J mouse at 20 mg/kg, po measured for 24 hrs; format: ADME, organism-based; settings: brain and plasma, read-out: Ratio AUC
Mus musculus [21] = test: Anti-inflammatory activity in BALB/c mouse model of carrageenan-induced paw edema at 20 mg/kg, po measured for 0.5 to 6 hrs; format: functional, organism-based; settings: time 0.5-6 hrs

SMILES | pIC50 [1] | further results
CS(=O)(=O)c1ccc(CC(=O)N2CCC(NC(=O)NCc3ccc(OC(F)(F)F)cc3)CC2)cc1 | 8.42 | Imax (Mus musculus [2]): 35.9%
COc1cc(CC(=O)N2CCC(NC(=O)Nc3ccc(OC(F)(F)F)cc3)CC2)cc(OC)c1 | 7.81 | –
COc1cc(OC)cc(C2Cc3ccc(NC(=O)NCc4ccc(OC(F)(F)F)cc4)cc3CN2)c1 (stereo not drawn) | 8.36 | –
CCC(=O)N1CCC(CNC(=O)NC2CCN(C(=O)Cc3cccc(NC(=O)Cc4ccccn4)c3)CC2)CC1 | 7.69 | –
CCC(=O)N1CCC(NC(=O)Nc2ccc(OC(F)(F)F)cc2)CC1 | – | inhibition in vivo at 20 mg/kg (Mus musculus [3]; Mus musculus, BALB/c): 28.8%
CCC(=O)N1CCC(CNC(=O)NC2CCN(C(=O)Cc3ccc(OC(F)(F)F)cc3)CC2)CC1 | 8.00 | –
COc1cc(CC(=O)N2CCC(NC(=O)NCC3CCOCC3)CC2)cc(OC)c1 | 7.73 | –
CCC(=O)N1CCC(CNC(=O)Nc2ccc3cc(-c4cc(OC)cc(OC)c4)ncc3c2)CC1 | 8.28 | –
CCC(=O)N1CCC(CNC(=O)NC2CCN(C(=O)Cc3cc(OC)cc(OC)c3)CC2)CC1 | 7.97 | Cmax [4]: 44.9 ng/g; inhibition in vivo at 20 mg/kg (Mus musculus [2]; Mus musculus, BALB/c): 38.6%; inhibition in vivo at 20 mg/kg (Mus musculus [5]): 37.6%; Cmax [6]: 76.7 ng/mL; AUC(0-t) at 24 h [7]: 76700 ng·h/mL; Activity (Mus musculus [8]): 60%; Cmax [9]: 5940 ng/g; AUC(0-t) at 24 h [10]: 43400 ng·h/mL; Cmax [11]: 4010 ng/g; AUC(0-t) at 24 h [12]: 173 ng·h/mL; Kp at 24 h [13]: 52.3; Kp at 24 h [14]: 237; inhibition in vivo at 20 mg/kg (Mus musculus [15]): 50.8%; Kp at 24 h [16]: 77.5; Kp at 24 h [17]: 135; Kp at 24 h [18]: 0.59; AUC(0-t) at 24 h [19]: 323 ng·h/mL; Kp at 24 h [20]: 0.53
O=C(NCc1ccc(OC(F)(F)F)cc1)NC1CCN(C(=O)Cc2cccc(OC(F)(F)F)c2)CC1 | 9.04 | Imax (Mus musculus [2]): 39.7%; Activity (Mus musculus [21]): Active
O=C(Cc1ccccn1)Nc1cccc(CC(=O)N2CCC(NC(=O)NCc3ccc(OC(F)(F)F)cc3)CC2)c1 | 8.51 | –
CCC(=O)N1CCC(CNC(=O)NC2CCN(C(=O)Cc3cccc(OC(F)(F)F)c3)CC2)CC1 | 7.73 | –
COc1cc(OC)cc(C(=O)N2CCC(NC(=O)NCc3ccc(OC(F)(F)F)cc3)CC2)c1 | 8.65 | –
O=C(NCc1ccc(OC(F)(F)F)cc1)NC1CCN(C(=O)Cc2ccc(OC(F)(F)F)cc2)CC1 | 8.65 | –
COc1cc(OC)cc(-c2cc3ccc(NC(=O)NCc4ccc(OC(F)(F)F)cc4)cc3cn2)c1 | 8.71 | Imax (Mus musculus [3]): 12.7%
CCC(=O)N1CCC(NC(=O)NC2CCN(C(=O)Cc3cc(OC)cc(OC)c3)CC2)CC1 | 6.79 | –
COc1cc(CCC(=O)N2CCC(NC(=O)NCc3ccc(OC(F)(F)F)cc3)CC2)cc(OC)c1 | 9.14 | Imax (Mus musculus [2]): 28.3%; Activity (Mus musculus [21]): Active
CCC(=O)N1CCC(CNC(=O)NC2CCN(C(=O)Cc3cccc(OC)c3)CC2)CC1 | 8.21 | –
CCC(=O)N1CCC(CNc2c(NC3CCN(C(=O)Cc4cc(OC)cc(OC)c4)CC3)c(=O)c2=O)CC1 | 3.78 | –
CCC(=O)N1CCC(CNC(=O)Nc2ccc3c(c2)CNC(c2cc(OC)cc(OC)c2)C3)CC1 (stereo not drawn) | 7.40 | –
COc1cccc(CC(=O)N2CCC(NC(=O)NCc3ccc(OC(F)(F)F)cc3)CC2)c1 | 9.27 | Activity (Mus musculus [21]): Active

Further lines, with some results ahead:

pIC50 [1] | SMILES | further results
5.90 | O=C(Cc1ccc2c(c1)OCO2)NCCCCNC(=O)NCC1CCOCC1 | –
5.19 | CN(C)C(=O)NCCCC/C=C/c1ccc2c(c1)OCO2 | –
5.31 | CC(C)C(=O)NCCC/C=C/c1ccc2c(c1)OCO2 | –
5.79 | CCC(=O)NCCCCNC(=O)NC1CCN(C(=O)Cc2cc(OC)cc(OC)c2)CC1 | –
7.66 | CC(C)CNC(=O)NCCCC#Cc1ccc2c(c1)OCO2 | –
5.88 | CC(C)CNC(=O)NC1CCN(CCc2ccc3c(c2)OCO3)CC1 | –
5.37 | CC(C)CNC(=O)NCCNC(=O)Cc1ccc2c(c1)OCO2 | –
5.35 | CC(C)CNC(=O)NCCCNC(=O)Cc1ccc2c(c1)OCO2 | –
4.80 | COc1cc(CC(=O)N2CCC(NC(=O)NCCN(C)C)CC2)cc(OC)c1 | –
6.68 | CC(C)CNC(=O)NCC1CCN(C(=O)Cc2ccc3c(c2)OCO3)CC1 | –
6.58 | CC(C)CNC(=O)NCCCCCNC(=O)Cc1ccc2c(c1)OCO2 | –
8.02 | CCC(=O)N1CCC(CNC(=O)NC2CCN(C(=O)Cc3ccc4c(c3)OCO4)CC2)CC1 | –
7.70 | COc1ccc(CC(=O)N2CCC(NC(=O)NCC(C)C)CC2)cc1OC | –
7.84 | COc1cc(CC(=O)N2CCC(NC(=O)NCc3ccc(C#N)cc3)CC2)cc(OC)c1 | –
7.95 | CC(C)CNC(=O)NCCC/C=C/c1ccc2c(c1)OCO2 | –
9.07 | O=C(NCc1ccc(OC(F)(F)F)cc1)NC1CCN(C(=O)Cc2ccc3c(c2)OCO3)CC1 | Imax (Mus musculus [2]): 36.3%; Activity (Mus musculus [21]): Active
5.19 | CN(C)C(=O)N1CCC(NC(=O)Cc2ccc3c(c2)OCO3)CC1 | –
6.59 | CN(C)C(=O)NCCC/C=C/c1ccc2c(c1)OCO2 | –
8.73 | CC(C)CNC(=O)NCCCCNC(=O)Cc1ccc2c(c1)OCO2 | –
7.96 | COc1cc(CC(=O)N2CCC(NC(=O)NCC(C)C)CC2)cc(OC)c1 | –
5.46 | CC(C)CNC(=O)N1CCC(NC(=O)Cc2ccc3c(c2)OCO3)CC1 | –
8.37 | COc1ccc(CC(=O)N2CCC(NC(=O)NCc3ccc(OC(F)(F)F)cc3)CC2)cc1OC | –
7.26 | O=C(Cc1ccccn1)Nc1cccc(CC(=O)N2CCC(NC(=O)NCC3CCOCC3)CC2)c1 | –
7.60 | CC(C)CNC(=O)NC1CCN(C(=O)Cc2ccc3c(c2)OCO3)CC1 | –
4.19 | CN(C)C(=O)NC1CCN(C(=O)Cc2ccc3c(c2)OCO3)CC1 | –
